Columns and labels:
B6A/J FAPs = assay: Spontaneous adipogenesis of B6A/J FAPs in culture with batimastat (Oil Red O); assay type: cell-based, mouse; details: 10 μM batimastat from day 3 in culture; 40,000 FAPs from 12Mo B6A/J mice; vs untreated
Method: To test this, and to independently confirm the benefit of inhibiting adipogenic differentiation of FAPs for dysferlinopathy, a drug was used to inhibit adipogenic differentiation of FAPs. […] To test the ability of batimastat to prevent the spontaneous adipogenesis of B6A/J FAPs, 40,000 FAPs isolated from 12Mo B6A/J mice were treated with 10 μM batimastat starting from 3 days in culture. Using Oil Red O, the extent of adipogenic differentiation of these FAPs after 14 days in culture was quantified in vitro (FIG. 11A).
Isolation and In Vitro Adipogenesis of FAPs. FAPs were isolated from the hindlimb muscles of 6Mo B6A/J mice in a modified protocol from previously published studies. Mice were euthanized and the tibialis anterior, extensor digitorum longus, gastrocnemius, soleus, quadriceps and psoas were immediately dissected. Non-muscle tissue including tendon, nerve and overlying fascia were carefully removed, and muscles were minced finely in a sterile dish and incubated in Collagenase II (2.5 U/ml, ThermoFisher, #17101015) in PBS for 30 min at 37° C. The resulting slurry was washed with sterile PBS before further digest in Collagenase D (1.5 U/ml, Sigma Aldridge, #COLLD-RO) and Dispase II (2.4 U/ml, Sigma Aldridge, #D4693) in PBS for 60 min at 37° C. […]

mdx mice = details: previously shown; cited from earlier work

Compound: CNC(=O)[C@H](Cc1ccccc1)NC(=O)[C@H](CC(C)C)[C@H](CSc1cccs1)C(=O)NO [batimastat]
- spontaneous adipogenesis of the B6A/J FAPs (Oil Red O) (B6A/J FAPs): reduced spontaneous adipogenesis
- fibrosis in mdx mice (mdx mice): reduce fibrosis
- muscle function in mdx mice (mdx mice): increase muscle function
